According to patent US20050070510A1, “Substituted tetracycline compounds as synergistic antifungal agents” (Paratek Pharmaceuticals, Inc., priority 2001, published 2005):

What follows are molecules tested on COS-1 cells (assay: In vitro mammalian cytotoxicity assay (Resazurin)).

Structure (SMILES)	In Vitro Cytotoxicity
CN(C)c1cc(-c2ccc(F)c(F)c2)c(O)c2c1C[C@@]1(N)C[C@@]3(N)[C@H](N(C)C)C(O)=C(C(N)=O)C(=O)[C@@]3(C#N)C(O)=C1C2=O [EY]	** (toxicities less than 25 μg/mL are represented by **)
Cc1ccc(-c2ccc(O)c3c2C[C@@]2(N)C[C@@]4(N)[C@H](N(C)C)C(O)=C(C(N)=O)C(=O)[C@@]4(C#N)C(O)=C2C3=O)cc1 [FR]	** (toxicities less than 25 μg/mL are represented by **)
CN(C)c1ccc(-c2ccc(O)c3c2C[C@@]2(N)C[C@@]4(N)[C@H](N(C)C)C(O)=C(C(N)=O)C(=O)[C@@]4(C#N)C(O)=C2C3=O)cc1 [EM]	** (toxicities less than 25 μg/mL are represented by **)
CC(=O)c1ccc(/C=C2\c3cccc(O)c3C(=O)C3=C(O)[C@]4(C#N)C(=O)C(C(N)=O)=C(O)[C@@H](N(C)C)[C@]4(N)[C@@H](O)[C@@]32N)cc1 [DE]	** (toxicities less than 25 μg/mL are represented by **)
CN(C)[C@@H]1C(O)=C(C(N)=O)C(=O)[C@@]2(C#N)C(O)=C3C(=O)c4c(ccc(NC5CCCC5)c4O)[C@H](N)[C@@]3(N)[C@H]([S+](N)[O-])[C@@]12N (stereo partly drawn) [CA]	** (toxicities less than 25 μg/mL are represented by **)
C=CCC(O)c1ccc(OC)c(-c2ccc(O)c3c2C[C@@]2(N)C[C@@]4(N)[C@H](N(C)C)C(O)=C(C(N)=O)C(=O)[C@@]4(C#N)C(O)=C2C3=O)c1 (stereo partly drawn) [UE]	** (toxicities less than 25 μg/mL are represented by **)
CN(C)c1cc(NC(=O)Nc2ccc([N+](=O)O)cc2)c(O)c2c1C[C@@]1(N)C[C@@]3(N)[C@H](N(C)C)C(O)=C(C(N)=O)C(=O)[C@@]3(C#N)C(O)=C1C2=O [IC]	* (toxicities greater than >25 μg/ml are represented by *)
CCCC#Cc1ccc(O)c2c1C[C@@]1(N)C[C@@]3(N)[C@H](N(C)C)C(O)=C(C(N)=O)C(=O)[C@@]3(C#N)C(O)=C1C2=O [KA]	** (toxicities less than 25 μg/mL are represented by **)
CCc1ccnc(-c2ccc(O)c3c2C[C@@]2(N)C[C@@]4(N)[C@H](N(C)C)C(O)=C(C(N)=O)C(=O)[C@@]4(C#N)C(O)=C2C3=O)c1 [VB]	** (toxicities less than 25 μg/mL are represented by **)
Cc1ccc(/C=C/c2ccc(O)c3c2C[C@@]2(N)C[C@@]4(N)[C@H](N(C)C)C(O)=C(C(N)=O)C(=O)[C@@]4(C#N)C(O)=C2C3=O)cc1 [HA]	** (toxicities less than 25 μg/mL are represented by **)
COC(=O)C1C(=O)[C@@]2(O)C(O)=C3C(=O)c4c(O)c(N(C)Cc5cc[nH]n5)cc(N(C)C)c4C[C@@]3(N)C[C@@]2(N)[C@H](N(C)C)C1OC (stereo partly drawn) [VG]	** (toxicities less than 25 μg/mL are represented by **)
CCc1cc(C#CC2=CCCCC2)c(O)c2c1C[C@@]1(N)C[C@@]3(N)[C@H](N(C)C)C(O)=C(C(N)=O)C(=O)[C@@]3(C#N)C(O)=C1C2=O [KE]	** (toxicities less than 25 μg/mL are represented by **)
CN(C)CCN(C)Cc1ccc(-c2cc(N(C)C)c3c(c2O)C(=O)C2=C(O)[C@]4(C#N)C(=O)C(C(N)=O)=C(O)[C@@H](N(C)C)[C@]4(N)C[C@]2(N)C3)s1 [ST]	* (toxicities greater than >25 μg/ml are represented by *)
CN(C)CC(=O)Nc1ccc2c(c1O)C(=O)C1=C(O)[C@]3(C#N)C(=O)C(C(N)=O)=C(O)[C@@H](N(C)C)[C@]3(N)C[C@]1(N)C2 [KU]	* (toxicities greater than >25 μg/ml are represented by *)
CN(C)[C@@H]1C(O)=C(C(N)=O)C(=O)[C@@]2(C#N)C(O)=C3C(=O)c4c(O)ccc(-c5ccc(CNC6CCCCC6)o5)c4C[C@@]3(N)C[C@@]12N [SR]	** (toxicities less than 25 μg/mL are represented by **)
CN(C)[C@@H]1C(O)=C(C(N)=O)C(=O)[C@@]2(C#N)C(O)=C3C(=O)c4c(O)c(NC(=O)OCC(C)(C)C)cc(CN)c4C[C@@]3(N)C[C@@]12N [QM]	* (toxicities greater than >25 μg/ml are represented by *)
CN(C)Cc1cccc(-c2ccc(O)c3c2C[C@@]2(N)C[C@@]4(N)[C@H](N(C)C)C(O)=C(C(N)=O)C(=O)[C@@]4(C#N)C(O)=C2C3=O)c1 [HQ]	* (toxicities greater than >25 μg/ml are represented by *)
COc1ccc(CNCc2ccc(-c3ccc(O)c4c3C[C@@]3(N)C[C@@]5(N)[C@H](N(C)C)C(O)=C(C(N)=O)C(=O)[C@@]5(C#N)C(O)=C3C4=O)cc2)cc1 [PI]	** (toxicities less than 25 μg/mL are represented by **)
CN(C)[C@@H]1C(O)=C(C(N)=O)C(=O)[C@@]2(C#N)C(O)=C3C(=O)c4c(O)ccc(-c5cc6ccccc6o5)c4C[C@@]3(N)C[C@@]12N [NW]	** (toxicities less than 25 μg/mL are represented by **)
CN(C)[C@@H]1C(O)=C(C(N)=O)C(=O)[C@@]2(C#N)C(O)=C3C(=O)c4c(O)ccc(-c5cc6ccccc6o5)c4C[C@@]3(N)C[C@@]12N [FW]	** (toxicities less than 25 μg/mL are represented by **)
COc1ccc(NC(=O)Nc2cc(N(C)C)c3c(c2O)C(=O)C2=C(O)[C@]4(C#N)C(=O)C(C(N)=O)=C(O)[C@@H](N(C)C)[C@]4(N)C[C@]2(N)C3)cc1 [IE]	* (toxicities greater than >25 μg/ml are represented by *)
CN(C)c1ccc(-c2cc(F)c(O)c3c2C[C@@]2(N)C[C@@]4(N)[C@H](N(C)C)C(O)=C(C(N)=O)C(=O)[C@@]4(C#N)C(O)=C2C3=O)cc1 [OX]	** (toxicities less than 25 μg/mL are represented by **)
CC(=O)Nc1cccc(-c2ccc(O)c3c2C[C@@]2(N)C[C@@]4(N)[C@H](N(C)C)C(O)=C(C(N)=O)C(=O)[C@@]4(C#N)C(O)=C2C3=O)c1 [GT]	* (toxicities greater than >25 μg/ml are represented by *)
Cc1ccc(/C=C2\c3cccc(O)c3C(=O)C3=C(O)[C@]4(C#N)C(=O)C(C(N)=O)=C(O)[C@@H](N(C)C)[C@]4(O)[C@@H](O)[C@@]32N)cc1 [CY]	** (toxicities less than 25 μg/mL are represented by **)
CCCCN(c1ccc2c(c1O)C(=O)C1=C(O)[C@]3(C#N)C(=O)C(C(N)=O)=C(O)[C@@H](N(C)C)[C@]3(N)C[C@]1(N)C2)C1CCN(C)CC1 [RY]	* (toxicities greater than >25 μg/ml are represented by *)
CC(CF)Nc1ccc(-c2ccc(O)c3c2C[C@@]2(N)C[C@@]4(N)[C@H](N(C)C)C(O)=C(C(N)=O)C(=O)[C@@]4(C#N)C(O)=C2C3=O)cc1 (stereo partly drawn) [VK]	** (toxicities less than 25 μg/mL are represented by **)
CCOC(=O)CNCc1ccc(-c2ccc(O)c3c2C[C@@]2(N)C[C@@]4(N)[C@H](N(C)C)C(O)=C(C(N)=O)C(=O)[C@@]4(C#N)C(O)=C2C3=O)cc1 [OS]	** (toxicities less than 25 μg/mL are represented by **)
CCc1cc(C#Cc2ccc(OC)cc2)c(O)c2c1C[C@@]1(N)C[C@@]3(N)[C@H](N(C)C)C(O)=C(C(N)=O)C(=O)[C@@]3(C#N)C(O)=C1C2=O [LH]	** (toxicities less than 25 μg/mL are represented by **)
CN(C)[C@@H]1C(O)=C(C(N)=O)C(=O)[C@@]2(C#N)C(O)=C3C(=O)c4c(O)ccc(CNC(=O)OCC(C)(C)C)c4C[C@@]3(N)C[C@@]12N [NP]	** (toxicities less than 25 μg/mL are represented by **)
CCC(NCc1cc(N(C)C)c2c(c1O)C(=O)C1=C(O)[C@]3(C#N)C(=O)C(C(N)=O)=C(O)[C@@H](N(C)C)[C@]3(N)C[C@]1(N)C2)C(F)(F)F (stereo partly drawn) [UM]	** (toxicities less than 25 μg/mL are represented by **)
